# Results from patent US7378446B2, “Compound having anti-HCV activity and process for producing the same” (Chugai Seiyaku Kabushiki Kaisha, priority 2003, dated 2008).
# Legend:
# [1] = test system: Firefly luciferase HCV replicon cells (3-1); experiment: Replicon assay (firefly luciferase HCV replicon); format: cell-based; conditions: Hepatitis C virus, 72 h; Huh7-derived luciferase HCV replicon cells, 3 days culture with compound, Steady-Glo luminescence
# Procedure: (§1) A construct was prepared in which a luciferase gene derived from firefly was introduced as a reporter gene in HCV-RNA to assay the number of copies of HCV-RNA. The luciferase gene was introduced in the form of fusing with neomycin-resistance gene directly below the IRES (Internal Ribosome Entry Site) of the HCV gene in accordance with the method of Krieger, et al. (J. Virol. 75:4614). After synthesizing this RNA in vitro, it was introduced into Huh7 cell by electroporation and isolated as G418-resistant clone. Firefly luciferase HCV replicon cells (3-1) were suspended in Dulbecco's MEM (Gibco cat. no. 10569-010) containing 5% fetal bovine serum (Hyclone cat. no. SH30071.03), inoculated into the wells of a 96-well plate at 5000 cells/well and then cultured overnight at 37° C. and 5% CO2. Approximately 20 hours later, the diluted test compound was added at 10 μl per well followed by culturing for another 3 days. Two series of assay plates were prepared, and the assay was carried out using a white plate for one series and a clear plate for the other series. Following completion of culturing, the white plate was used for the Steady-Glo Luciferase Assay System (Promega cat. no. E2520). Namely, after adding 100 μl of reagent per well, mixing by a pipette 3 to 4 times and then allowing to stand for 5 minutes, luminescence was measured with the 1450 MicroBeta TRILUX (Wallac). Values obtained in the absence of cell addition were used as background values and subtracted from all values to calculate the IC50 (50% inhibitory concentration) of the drug based on a value of 0% inhibition for the value in the absence of addition of test compound.
# [2] = in vitro; format: cell-based; conditions: human; replicon cells, 3 days culture with compound, Cell Counting Kit 8, absorbance 450 nm; read-out: Cytotoxicity CC50
# Procedure: as §1
# The Cell Counting Kit 8 (Dojindo cat. no. CK04) was used to determine the cytotoxicity. Namely, 10 μl of Cell Counting Kit 8 were added to a clear plate and incubated for 30 to 60 minutes at 37° C. Absorbance at a wavelength of 450 nm and a control wavelength of 630 nm was measured with a 96-well plate reader. Values in the absence of cell addition were used as background values and subtracted from all values to calculate the CC50 (50% cell inhibitory concentration) of the drug based on a value of 0% inhibition for the value in the absence of addition of drug.
Compound,IC50 [1] [nM],CC50 [2] [nM]
CCCCCCCC(=O)CCCCCC/C=C/[C@H](C(=O)N[C@@H](Cc1ccc(Oc2ccccc2)cc1)C(=O)O)[C@@](O)(CC(=O)O)C(=O)O [Compound 15],2,> 5000
CCCCCCCC(=O)CCCCCC/C=C/[C@H](C(=O)N[C@@H](Cc1ccc(C)cc1)C(=O)O)[C@@](O)(CC(=O)O)C(=O)O [Compound 16],10,> 5000
CCCCCCCC(=O)CCCCCC/C=C/[C@H](C(=O)N[C@@H](Cc1ccc(OCc2ccccc2)cc1)C(=O)O)[C@@](O)(CC(=O)O)C(=O)O [Compound 17],< 1,> 5000
CC#CCOc1ccc(C[C@H](NC(=O)[C@@H](/C=C/CCCCCCC(=O)CCCCCCC)[C@@](O)(CC(=O)O)C(=O)O)C(=O)O)cc1 [Compound 18],1,> 5000
CCCCCCCC(=O)CCCCCC/C=C/[C@H](C(=O)N[C@@H](Cc1ccc(-c2ccccc2)cc1)C(=O)O)[C@@](O)(CC(=O)O)C(=O)O [Compound 19],2,> 5000
CCCCCCCC(=O)CCCCCC/C=C/[C@H](C(=O)N[C@@H](Cc1ccc2ccccc2c1)C(=O)O)[C@@](O)(CC(=O)O)C(=O)O [Compound 20],7,> 5000
CCCCCCCC(=O)CCCCCC/C=C/[C@H](C(=O)N[C@@H](Cc1ccc(OC2CCCCC2)cc1)C(=O)O)[C@@](O)(CC(=O)O)C(=O)O [Compound 21],4,> 1000
CCCCCCCC(=O)CCCCCC/C=C/[C@H](C(=O)N[C@@H](Cc1ccc(CCCC(C)C)cc1)C(=O)O)[C@@](O)(CC(=O)O)C(=O)O [Compound 22],14,> 1000
CCCCCCCC(=O)CCCCCC/C=C/[C@H](C(=O)N[C@@H](Cc1ccc(OC)c(OC)c1)C(=O)O)[C@@](O)(CC(=O)O)C(=O)O [Compound 23],17,> 1000
CCCCCCCC(=O)CCCCCC/C=C/[C@H](C(=O)N[C@@H](Cc1ccc(Oc2ccc(Cl)cc2)cc1)C(=O)O)[C@@](O)(CC(=O)O)C(=O)O [Compound 24],11,> 1000
CCCCCCCC(=O)CCCCCC/C=C/[C@H](C(=O)N[C@@H](Cc1ccc(Oc2ccc(F)cc2)cc1)C(=O)O)[C@@](O)(CC(=O)O)C(=O)O [Compound 25],9,> 1000
CCCCCCCC(=O)CCCCCC/C=C/[C@H](C(=O)N[C@@H](Cc1ccc(CCCCC)cc1)C(=O)O)[C@@](O)(CC(=O)O)C(=O)O [Compound 26],17,> 1000
CCCCCCCC(=O)CCCCCC/C=C/[C@H](C(=O)N[C@@H](Cc1ccc(-c2cccnc2)cc1)C(=O)O)[C@@](O)(CC(=O)O)C(=O)O [Compound 27],10,> 1000
CCCCCCCC(=O)CCCCCC/C=C/[C@H](C(=O)N[C@@H](Cc1ccc(-c2ccc(Cl)cc2)cc1)C(=O)O)[C@@](O)(CC(=O)O)C(=O)O [Compound 28],9,> 1000
CCCCCCCC(=O)CCCCCC/C=C/[C@H](C(=O)N[C@@H](Cc1ccc(-c2ccc(F)cc2)cc1)C(=O)O)[C@@](O)(CC(=O)O)C(=O)O [Compound 29],6,> 1000
CCCCCCCC(=O)CCCCCC/C=C/[C@H](C(=O)N[C@@H](Cc1ccc(-c2ccc(F)cc2F)cc1)C(=O)O)[C@@](O)(CC(=O)O)C(=O)O [Compound 30],8,> 1000
CCCCCCCC(=O)CCCCCC/C=C/[C@H](C(=O)N[C@@H](Cc1ccc(-c2ccsc2)cc1)C(=O)O)[C@@](O)(CC(=O)O)C(=O)O [Compound 31],12,> 1000
CCCCCCCC(=O)CCCCCC/C=C/[C@H](C(=O)NC(Cc1ccc(C(F)(F)F)cc1)C(=O)O)[C@@](O)(CC(=O)O)C(=O)O (stereo partly shown) [Compound 32],68,> 1000
CCCCCCCC(=O)CCCCCC/C=C/[C@H](C(=O)NC(Cc1ccc(C#N)cc1)C(=O)O)[C@@](O)(CC(=O)O)C(=O)O (stereo partly shown) [Compound 33],12,> 1000
CCCCCCCC(=O)CCCCCC/C=C/[C@H](C(=O)NC(Cc1ccc(Cl)cc1)C(=O)O)[C@@](O)(CC(=O)O)C(=O)O (stereo partly shown) [Compound 34],55,> 1000
CCCCCCCC(=O)CCCCCC/C=C/[C@H](C(=O)NC(Cc1ccc([N+](=O)[O-])cc1)C(=O)O)[C@@](O)(CC(=O)O)C(=O)O (stereo partly shown) [Compound 35],80,> 1000

Compound,IC50 [1] [nM],CC50 [2] [nM]
CCCCCCCC(=O)CCCCCC/C=C/[C@H](C(=O)N[C@@H](Cc1cccs1)C(=O)O)[C@@](O)(CC(=O)O)C(=O)O [Compound 36],500,> 1000
CCCCCCCC(=O)CCCCCC/C=C/[C@H](C(=O)N[C@@H](Cc1ccc(C(C)(C)C)cc1)C(=O)O)[C@@](O)(CC(=O)O)C(=O)O [Compound 37],210,> 1000
CCCCCCCC(=O)CCCCCC/C=C/[C@H](C(=O)N[C@@H](Cc1ccc(-c2cccc(Cl)c2)cc1)C(=O)O)[C@@](O)(CC(=O)O)C(=O)O [Compound 38],24,> 1000
CCCCCCCC(=O)CCCCCC/C=C/[C@H](C(=O)N[C@@H](Cc1ccc(Oc2cccc(Cl)c2)cc1)C(=O)O)[C@@](O)(CC(=O)O)C(=O)O [Compound 39],20,> 1000
CCCCCCCC(=O)CCCCCC/C=C/[C@H](C(=O)NC(Cc1ccc(OCCCC)cc1)C(=O)O)[C@@](O)(CC(=O)O)C(=O)O (stereo partly shown) [Compound 40],1,> 1000
CCCCCCCC(=O)CCCCCC/C=C/[C@H](C(=O)NC(Cc1ccc(OCCC)cc1)C(=O)O)[C@@](O)(CC(=O)O)C(=O)O (stereo partly shown) [Compound 41],2,> 1000
C=CCOc1ccc(CC(NC(=O)[C@@H](/C=C/CCCCCCC(=O)CCCCCCC)[C@@](O)(CC(=O)O)C(=O)O)C(=O)O)cc1 (stereo partly shown) [Compound 42],1,> 1000
CCCCCCCC(=O)CCCCCC/C=C/[C@H](C(=O)NC(Cc1ccc(OC)cc1)C(=O)O)[C@@](O)(CC(=O)O)C(=O)O (stereo partly shown) [Compound 43],3,> 1000
CCCCCC(=O)CCCCCCCC/C=C/[C@H](C(=O)N[C@@H](Cc1ccc(OCCC(C)C)cc1)C(=O)O)[C@@](O)(CC(=O)O)C(=O)O [Compound 44],1,> 1000
CCCCCCCCCC(=O)CCCC/C=C/[C@H](C(=O)N[C@@H](Cc1ccc(OCCC(C)C)cc1)C(=O)O)[C@@](O)(CC(=O)O)C(=O)O [Compound 45],5,> 1000
CCCC(=O)CCCCCC/C=C/[C@H](C(=O)N[C@@H](Cc1ccc(OCCC(C)C)cc1)C(=O)O)[C@@](O)(CC(=O)O)C(=O)O [Compound 46],800,> 5000
CC(C)CCOc1ccc(C[C@H](NC(=O)[C@@H](/C=C/CCCCCCC(=O)CCc2ccccc2)[C@@](O)(CC(=O)O)C(=O)O)C(=O)O)cc1 [Compound 47],250,> 1000
C=CCCCCCC(=O)CCCCCC/C=C/[C@H](C(=O)N[C@@H](Cc1ccc(OCCC(C)C)cc1)C(=O)O)[C@@](O)(CC(=O)O)C(=O)O [Compound 48],3,> 1000
CCCCCCCCC(=O)CCCCCC/C=C/[C@H](C(=O)N[C@@H](Cc1ccc(OCCC(C)C)cc1)C(=O)O)[C@@](O)(CC(=O)O)C(=O)O [Compound 49],4,> 1000
CC(C)CCCCC(=O)CCCCCC/C=C/[C@H](C(=O)N[C@@H](Cc1ccc(OCCC(C)C)cc1)C(=O)O)[C@](O)(CC(=O)O)C(=O)O [Compound 50],4,> 1000
CCCCCCC(=O)CCCCCC/C=C/[C@H](C(=O)N[C@@H](Cc1ccc(OCCC(C)C)cc1)C(=O)O)[C@](O)(CC(=O)O)C(=O)O [Compound 51],17,> 1000
CC(C)CCOc1ccc(C[C@H](NC(=O)[C@@H](/C=C/CCCCCCC(=O)CCC2CCCCC2)[C@](O)(CC(=O)O)C(=O)O)C(=O)O)cc1 [Compound 52],24,> 1000
CCCCCCCC(=O)CCCCCC/C=C/[C@H](C(=O)N[C@@H](Cc1ccc(Oc2ccc(C)cc2)cc1)C(=O)O)[C@@](O)(CC(=O)O)C(=O)O [Compound 53],2,> 1000
CCCCCCCC(=O)CCCCCC/C=C/[C@H](C(=O)N[C@@H](Cc1ccc(Oc2ccc(OC)cc2)cc1)C(=O)O)[C@@](O)(CC(=O)O)C(=O)O [Compound 54],2,> 1000
CCCCCCCC(=O)CCCCCC/C=C/[C@H](C(=O)N[C@@H](Cc1ccc(Oc2ccc(C(F)(F)F)cc2)cc1)C(=O)O)[C@@](O)(CC(=O)O)C(=O)O [Compound 55],19,> 1000
